# Residues, ends and D or L forms follow the SMILES beside them.
# Tests used:
# [1] = tested on: brain subcortical structure explants; experiment: Growth of brain subcortical structure explants (square index, organotypic culture); format: cell-based, chicken embryos; settings: 100 ng/ml, control SI = 100%
# Method: Experiments were conducted on 69 fragments of brain subcortical structures of 10-11-days' old chicken embryos. The nutrient medium for cultivation consisted of 35% Eagle's solution, 25% calf foetal serum, 35% Hanks' solution, 5% chicken embryonic extract. The medium was also added glucose (0.6%), insulin (0.5 unit/ml), penicillin (100 unit/ml), glutamine (2 mM). Fragments of the brain subcortical structures were placed in this medium and cultivated in Petri's dishes in a thermostat at 36.7° C. for 48 hours. The experimental medium was added Ala-Glu-Asp-Gly tetrapeptide and Epithalamin in the concentrations of 2, 10, 20, 50, 100, 200, 400 ng/ml. Square index (SI) considered the criterion of biological activity. It was counted as the ratio between the total explant square including the growth zone and the initial square of the subcortical structure fragment Significance of differences between the average values of SI was assessed by Student's t-criterion. ST values were expressed percent, the control SI value being taken for 100%.
# The growth zone of the control explants of the brain, subcortical structures included short neurites, migrating glia and fibroblast-resembling cells.
# Immediate influence of the substances upon the fragments of the brain subcortical structures was investigated in the following experimental series.
# [2] = tested on: cerebral cortex explants; experiment: Growth of cerebral cortex explants (square index, organotypic culture); format: cell-based, chicken embryos
# Method: The experiments are conducted on 73 fragments of cerebral cortex explants of 10-11-days' chicken embryos. The nutrient medium for cultivation consisted of 35% Eagle's solution, 25% calf foetal serum, 35% Hanks' solution, 5% chicken embryonic extract. The medium was also added glucose (0.6%), insulin (0.5 unit/ml), penicillin (100 unit/ml), glutamine (2 mM). Fragments of the cerebral cortex were placed in this medium and cultivated in Petri's dishes in a thermostat at 36.7° C. for 48 hours. The experimental medium is was added Ala-Glu-Asp-Pro tetrapeptide and Cortexin in the concentrations of 2, 10, 20, 50, 100, 200, 400 ng/ml. Square index (SI) was considered the criterion of biological activity. It was counted as the ratio between the total explant square including the growth zone and the initial square of the cerebral cortex fragment and. Significance of differences between the average values of SI was assessed by Student's t-criterion. SI values were expressed per cent, the control SI value being taken for 100%.
# The growth zone of the control cerebral cortex explants included short neurites, migrating glia and fibroblast cells.
# Immediate influence of the substances upon the cerebral cortex fragments was investigated in the following experimental series.
# [3] = tested on: liver explants; experiment: Growth of liver explants (square index, organotypic culture); format: cell-based, chicken embryos; settings: 20 ng/ml
# Method: The experiments were carried out in 53 liver fragments of 10-11 days old chicken embryos. Nutrient medium for the explant cultivation consisted of 35% of Eagle's solution, 25% of foetal calf serum, 35% of Hank's solution and 5% of chicken embryonic extract. The mixture is added glucose (0.6%), insulin (0.5 unit/ml), penicillin (100 unit/m) and glutamine (2 mM). […] Lys-Glu-Asp-Ala tetrapeptide was added to the experimental medium in the concentrations of 2, 10, 20, 50, 100, 200 and 400 ng/mL Square index (SI) was taken for a biological activity criterion and calculated as a correlation of the total explant square including the growth zone to the initial square of a liver fragment. The SI values were expressed percent, the control SI value taken for 100%.
# [4] = tested on: monolayer hepatocyte culture; experiment: Intensity of protein synthesis ([3H]-leucin inclusion) in monolayer hepatocyte culture; format: cell-based, rats; settings: 0.005 μg/ml, 4 hours
# Method: Intensity of the protein synthesis was investigated in the hepatocyte culture of rats aged 4, 8 and 18 months.
# To isolate hepatocytes, rat liver was perfused with calcium-free Hanks' solution added 0.5 mM of EDTA and then 0.05% collagenase solution in Medium 199. The cellular suspension was filtered out and centrifuged. The hepatocyte suspension in the concentration of 5×10^5 was introduced into Petri's dishes, their bottoms surfaced with collagen-covered glass. Applied Medium 199 contained no bovine serum but was added 0.2 mg/ml of albumen and 5 μg/ml of insulin. The dishes with glass-covered bottoms were placed in a thermostat at 37° C., aerated and added CO2. […]
# Protein synthesis was assessed by [^3H]-leucin inclusion regarding the standard errors for a free marked leucin pull in the same culture. […] Radioactivity of the pull of free intracellular leucin and cellular proteins (in hyamine fraction) after adding the corresponding scintillators was measured on a radioactivity counter SL-30.
# The intensity of protein synthesis was calculated by the formula Icorr=Ii×Pav/Pi(cpm), where
# Icorr—inclusion of leucin regarding the standard errors of free leucin pull, Ii—measured radioactivity of the proteins for i-culture, Pav—mean radioactivity of proteins and pull for the cultures studied in this experiment, Pi—total radioactivity of proteins and pull of the same culture. […]
compound,measurement,setting,value
"C[C@H](N)C(=O)N[C@@H](CCC(=O)O)C(=O)N[C@@H](CC(=O)O)C(=O)NCC(=O)O [Ala-Glu-Asp-Gly tetrapeptide, alanyl-glutamyl-aspartyl-glycine] (H-AEDG-OH)",SI of the experimental explants higher than that of the control fragments,[1],24%
"C[C@H](N)C(=O)N[C@@H](CCC(=O)O)C(=O)N[C@@H](CC(=O)O)C(=O)N1CCC[C@H]1C(=O)O [Ala-Glu-Asp-Pro tetrapeptide, L-alanyl-L-glutamyl-L-aspartyl-L-proline] (H-AEDP-OH)",SI of the experimental explants higher than that of the control cerebral cortex fragments,"[2]; 20 ng/ml, control SI = 100%",40±7%
same,concentration stimulating the fragments of cultivated cerebral cortex (threshold of effective concentrations),[2]; tested 2-400 ng/ml,20 ng/mL
"C[C@H](NC(=O)[C@H](CC(=O)O)NC(=O)[C@H](CCC(=O)O)NC(=O)[C@@H](N)CCCCN)C(=O)O [Lys-Glu-Asp-Ala tetrapeptide, lysyl-glutamyl-aspartyl-alanine] (H-KEDA-OH)",effect on liver explants by longer terms of cultivation,[3]; cultivation up to 7 days,analogous stimulating effect
same,increase in the explant SI as compared to the control value,"[3]; third day of the cultivation, control SI = 100%",24%
same,amplitude of synthesis oscillations,[4]; hepatocytes of older rats,increased considerably
same,level of protein synthesis in hepatocytes,"[4]; hepatocytes of rats aged 4, 8 and 18 months, strongest effect in cells of older animals",raised the level of protein synthesis

# Source: patent US20050004016A1, “Method of obtaining peptides with tissue-specific activity and pharmaceutical compositions on their basis” (priority 2000, published 2005)
